Results on five molecules are retold here after US20040171544A1, “Trefoil domain-containing polypeptides and uses thereof” (priority 2001, published 2004).

Where no end group is shown, it is not given here.

Data set [1] concerns IEC-6 cells. As to the kind of experiment: in vitro IEC-6 wounding/cell migration assay. It is filed as cell-based. Particulars: for relative activity (wound repair, IEC-6 cells across the wound border): 0.1-1.0 mg/ml dimer, 19 hours, serum-deprived media with or without hCGP 2 mg/ml. The procedure:
Biological activity of recombinant trefoil peptide fragments was measured using an in vitro wound/migration assay as described by Dignass et al. (J. Clin. Invest. 94:376-383 (1994)). Briefly, primary intestinal epithelial, IEC-6 cells (at passage 17) were grown in sterile Dulbecco's Modified Eagle Medium (DMEM) supplemented with 5% FCS (v/v), 5 μg/μl insulin, and 10 mM penicillin/streptomycin/L-glutamine (PSG). Cells were grown to confluence in a humidified chamber at 37° C. and 5% CO2.
Prior to performing biopotency assays, the media was removed, washed 2× with 0.1% FCS/DMEM and serum-starved overnight in 0.1% FCS/DMEM at 37° C. and 5% CO2. Two simulated wounds per well were made by scoring the cells with a razor blade. The cells were then washed once with 0.1%FCS/DMEM. Samples of hITF15-73 and its fragments and isoforms were produced in Pichia pastoris and purified as described above. The TDCP mixture was then added to separate plates at a concentration of 100 μg per milliliter of 0.1% FCS/DMEM per fragment. A positive control using the known mitogen, transforming growth factor-β (TGF-β), was included at 20 ng/mL media and a negative control of just 0.1% FCS/DMEM were incorporated for later analysis. Cells were incubated for 24 hours at 37° C. At 24 hours post incubation, cells were washed with ice-cold PBS and fixed in cold MeOH. Each plate was then assayed for motility by counting the number of cells crossing the wound edge.
Biological activity was tested using the in vitro IEC-6 wounding/cell migration assay describe above with the following modifications. IEC-6 cells were cultured to confluence in 24-well multiwell plates and were wounded once with a pipette to yield a 4-5 mm×1 cm wound in each well. Cells were washed and maintained in serum-deprived media, with or without human colonic glycoprotein (hCGP; 2 mg/ml), in the presence of 0.1-1.0 mg/ml of one of the three recombinant hITF dimers identified above for 19 hours. Bovine serum albumin (0.1-1.0 mg/ml) was added instead of an hITF dimer. Wound repair was determined by counting the number of IEC-6 cells across the wound border using a 100× photomicrograph (inverted Nikon Diaphor TMS, Nikon N6006 camera).

Data set [2] in a line: isoelectric point (pI) of ITF fragments. It is filed as physicochemical. The source says:
We have observed that production of trefoil peptides in Pichia pastoris leads to post-translational events which include proteolytic cleavage and dipeptide addition. […] Our studies have shown that longer fermentation times results in increased hITF21-72 yields. We also observed that the optimal yield of the ITF21-72 and ITF21-73 occurs at a pH of ˜5; whereas the optimal yield of the […] and […] occurs at pH 6.0-6.5. As the pI of ITF15-73 and ITF21-72 is 5.1 and 6.9 respectively, separation of the two products can be achieved by ion-exchange chromatography.

The conditions of data set [3]: stated as well known; cited from earlier work.

With “EA-hITF15-73 homodimer: dimer of EA-hITF15-73, 13547 Da (EAEEYVGLSANQCAVPAKDRVDCGYPHVTPKECNNRGCCFDSRIPGVPWCFKPLQEAECTF; also: homodimer; UniProt Q07654 22-80, looked up, fragment)”, the “relative activity (wound repair, IEC-6 cells across the wound border)” value (shortened to “relative activity”) in data set [1] stood at 85.3%.

For the molecule “hITF15-73 homodimer: recombinant hITF15-73 dimer, 13146 Da (EEYVGLSANQCAVPAKDRVDCGYPHVTPKECNNRGCCFDSRIPGVPWCFKPLQEAECTF; cysteine pairing not given here; also: homodimer; UniProt Q07654 22-80, looked up, fragment)”, in data set [1], the “relative activity” value came out at 100%.

On to “hITF15-73/EA-hITF15-73 heterodimer: dimer of hITF15-73 and EA-hITF15-73, 13347 Da (EEYVGLSANQCAVPAKDRVDCGYPHVTPKECNNRGCCFDSRIPGVPWCFKPLQEAECTF; cysteine pairing not given here; also: heterodimer of hITF15-73 and EA-hITF15-73, one chain has N-terminal Glu-Ala extension; UniProt Q07654 22-80, looked up, fragment)”, for which, in data set [1], the “relative activity” value came out at 95.6%.

Consider “hITF15-73: recombinant trefoil peptide fragment, amino acid residues 15-73 of human intestinal trefoil factor, produced in Pichia pastoris (EEYVGLSANQCAVPAKDRVDCGYPHVTPKECNNRGCCFDSRIPGVPWCFKPLQEAECTF; UniProt Q07654 22-80, looked up, fragment)”, for which, in data set [2], the pI worked out at 5.1. The “increase in IEC-6 cells migrating over the wound edge, compared to BSA control” value in data set [1] (1 mg/ml, 19 hour incubation, versus 1 mg/ml BSA (FIG. 12)) is around 3 fold.

B1: hITF: human intestinal trefoil factor (hITF; also known as TFF3) (protein, listed as Homo sapiens)
chain: MLGLVLALLSSSSAEEYVGLSANQCAVPAKDRVDCGYPHVTPKECNNRGCCFDSRIPGVPWCFKPLQEAECTF
With B1, the “stability at stomach pH” value in data set [3] is reported as “stable”.
